In general, IC50 refers to the concentration at which inhibition is half-maximal.

For assay [1], the system named is HT29 cells. In words: Cell viability experiment (Cell Titer-Glo), HT29. The class given is cell-based, human. How it is done:
(§1) Biological Test Method 2: Cell Viability Experiment
(§2) HT29 and A375 cells were plated in a 96-well cell culture plate at a density of 40,000 cells/well and 20,000 cells/well respectively, and the cells were cultured overnight. The compounds were serially diluted in a gradient of 1:3, the dilutions were added to the cell culture medium, and incubated with the cells in a 37° C. incubator for 3 days. The 96-well cell culture plate was taken from the incubator and equilibrated at room temperature for 30 minutes, then Cell Titer-Glo reagent (Promega Cat #G7573) was added at a ratio of 1:2, and the mixture was mixed thoroughly on a shaker for 2 minutes to promote cell lysis. The cell culture plate was incubated at room temperature for 10 minutes and then read on an Envision microplate reader (PerkinElmer). XLfit5 software was used for data analysis and mapping.
Background: ATP-based viability assays read luminescence as a measure of living cells.

The target in assay [2] is T1, activated MEK1 (Homo sapiens, UniProt Q02750).
T1 construct: purchased Millipore 14-429
T1 sequence (Q02750 whole entry): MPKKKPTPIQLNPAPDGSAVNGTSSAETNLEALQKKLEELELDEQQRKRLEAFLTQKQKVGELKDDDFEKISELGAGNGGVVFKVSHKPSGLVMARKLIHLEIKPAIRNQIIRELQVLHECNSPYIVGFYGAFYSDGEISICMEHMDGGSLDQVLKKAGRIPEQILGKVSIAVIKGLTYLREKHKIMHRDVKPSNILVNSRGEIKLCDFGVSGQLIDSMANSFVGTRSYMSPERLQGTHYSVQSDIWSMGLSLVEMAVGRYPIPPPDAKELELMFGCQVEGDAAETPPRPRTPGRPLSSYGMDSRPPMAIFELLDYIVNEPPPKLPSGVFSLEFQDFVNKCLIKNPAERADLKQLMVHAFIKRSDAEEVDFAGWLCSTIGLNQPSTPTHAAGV
The assay can be described thus: MEK Lance Ultra experiment. The class given is biochemical. The conditions noted are these: 0.07 nM activated MEK1, 2 nM non-activated ERK, 50 μM ATP; read-out: MEK potency IC50. How it is done: Biological Test Method 1: MEK Lance Ultra Experiment Compounds were serially diluted three-fold to 10 concentrations, two duplicates were set. Final test concentrations of the compounds ranged from 10 μM to 0.51 nM. 0.07 nM activated MEK1 (Millipore #14-429) and 2 nM non-activated ERK (Millipore #14-515) were mixed with the compounds or DMSO, the mixture was incubated at 23° C. for 30 minutes. Then 50 nM ULight labeled MBP (PerkinElmer #TRF0109-M) and 50 μM ATP (Invitrogen #PV3227) were added to initiate the reaction, and the mixture was incubated at 23° C. for 90 minutes. After the reaction was stopped by adding EDTA at a final concentration of 15 mM, 2 nM Eu-labeled anti-phosphorylated antibody (PerkinElmer #TRF0201-M) was added and incubated for 1 hour. The fluorescence signal data (excitation band: 320 nm; emission band: 665 nM/615 nM) was determined by an Envision microplate reader (PerkinElmer). XLfit5 software was used for data analysis and mapping.

For assay [3], the system named is A375 cells. In words: Cell viability experiment (Cell Titer-Glo), A375. Format: cell-based. How it is done:
as §1, §2

The mark [4] stands for this setting: Homo sapiens, HT-29, 72 h, HT29 cells, 3 days incubation; read-out: HT29 IC50.
Where [5] appears, read: Homo sapiens, A-375, 72 h, A375 cells, 3 days incubation; read-out: A375 IC50.
Setting [6] is: HT29 cells, 3 days incubation; read-out: HT29 IC50.
Where [7] appears, read: A375 cells, 3 days incubation; read-out: A375 IC50.
The mark [8] stands for this setting: read-out: HT29 IC50; HT29 cells, 3 days incubation.
The mark [9] stands for this setting: read-out: A375 IC50; A375 cells, 3 days incubation.

Where two headings read alike, the source gives them in different places.

With `Cc1c(Nc2ccc(I)cc2F)c2c(=O)n(C3CC3)c(C)c(-c3cccc(C[S+](C)[O-])c3)c2oc1=O` (single isomer, unassigned) [WX083], the half-inhibitory concentration (IC50) was determined as 10.5 nM in assay [1] (setting [4]), 146 nM in assay [2] and 8.62 nM in assay [3] (setting [5]).

Turning to `Cc1c(Nc2ccc(I)cc2F)c2c(=O)n(C3CC3)c(C)c(-c3cccc(C[S+](C)[O-])c3)c2oc1=O` (single isomer, unassigned) [WX084], the 50% inhibitory concentration (IC50) in assay [1] (setting [6]) was found to be 17.4 nM; in assay [2], 176 nM; in assay [3] (setting [7]), 6.18 nM.

As to `Cc1c(Nc2ccc(I)cc2F)c2c(=O)n(C3CC3)c(C)c(-c3cccc(NS(C)(=O)=O)c3Cl)c2oc1=O` (single isomer, unassigned) [WX116], the results for the 50% inhibitory concentration (IC50) in assay [1] (setting [8]), in assay [2] and in assay [3] (setting [9]) were 0.82 nM, 34.5 nM and 0.39 nM, respectively.

`Cc1c(Nc2ccc(I)cc2F)c2c(=O)n(C3CC3)c(C)c(-c3cccc(NS(C)(=O)=O)c3Cl)c2oc1=O` (single isomer, unassigned) [WX117]: the half-inhibitory concentration (IC50) in assay [1] (setting [8]) is 18.7 nM; in assay [2], 424 nM; in assay [3] (setting [9]), 7.18 nM.

Regarding `Cc1[nH]c(=O)c2c(Nc3ccc(I)cc3F)c(C)c(=O)oc2c1-c1cccc(NS(C)(=O)=O)c1C` (single isomer, unassigned) [WX118], the results for the 50% inhibitory concentration (IC50) in assay [1] (setting [6]), in assay [2] and in assay [3] (setting [7]) were 1.76 nM, 32.7 nM and 0.41 nM, respectively.

For the molecule `Cc1[nH]c(=O)c2c(Nc3ccc(I)cc3F)c(C)c(=O)oc2c1-c1cccc(NS(C)(=O)=O)c1C` (single isomer, unassigned) [WX119], the half-maximal inhibitory concentration (IC50) in assay [1] (setting [6]) amounted to 19.3 nM; in assay [2], 18.2 nM; in assay [3] (setting [7]), 5.85 nM.

In the case of `Cc1c(Nc2ccc(I)cc2F)c2c(=O)n(C3CC3)c(C)cc2oc1=O` [WX035], the IC50 in assay [1] (setting [4]) was 98.8 nM; in assay [2], 111 nM; in assay [3] (setting [5]), 32.9 nM.

On to `CC(=O)Nc1ccc(C)c(-c2c(C)n(C3CC3)c(=O)c3c(Nc4ccc(I)cc4F)c(C)c(=O)oc23)c1` [WX036], for which the IC50 in assay [1] (setting [4]) turned out to be 69 nM; in assay [2] it was 44.3 nM; in assay [3] (setting [5]), 33.6 nM.

In the case of `CC(=O)Nc1cccc(-c2c(C)n(C3CC3)c(=O)c3c(Nc4ccc(I)cc4F)c(C)c(=O)oc23)n1` [WX039], the IC50 stood at 4.27 nM in assay [1] (setting [4]), 52 nM in assay [2] and 1.61 nM in assay [3] (setting [5]).

For the molecule `CC(=O)Nc1cccc(-c2c(C)n(C)c(=O)c3c(Nc4ccc(I)cc4F)c(C)c(=O)oc23)c1` [WX040], the IC50 in assay [1] (setting [4]) turned out to be 64.1 nM; in assay [2], 581 nM; in assay [3] (setting [5]) it was 69.7 nM.

Consider `CC(=O)Nc1ccc(F)c(-c2c(C)n(C3CC3)c(=O)c3c(Nc4ccc(I)cc4F)c(C)c(=O)oc23)c1` [WX048], for which the IC50 in assay [1] (setting [4]) is 101 nM; in assay [2] it was 581 nM; in assay [3] (setting [5]), 52.6 nM.

For `CC(=O)Nc1cccc(-c2c(C)[nH]c(=O)c3c(Nc4ccc(I)cc4F)c(C)c(=O)oc23)c1` [WX049], the results for the IC50 in assay [1] (setting [4]), in assay [2] and in assay [3] (setting [5]) were 7.4 nM, 67 nM and 3.08 nM, respectively.

As for `Cc1c(Nc2ccc(I)cc2F)c2c(=O)n(CC(O)CO)c(C)cc2oc1=O` (stereo not drawn) [WX053], the figures for the IC50 in assay [1] (setting [4]), in assay [2] and in assay [3] (setting [5]) were 9.19 nM, 92.8 nM and 3.27 nM, respectively.

With `CNCCn1c(C)c(-c2cccc(NC(C)=O)c2)c2oc(=O)c(C)c(Nc3ccc(I)cc3F)c2c1=O` [WX054], the IC50 in assay [1] (setting [4]) was 334 nM; in assay [2] it was 81.5 nM; in assay [3] (setting [5]), 484 nM.

`CC(=O)Nc1cccc(-c2c(C)n(CCN(C)S(C)(=O)=O)c(=O)c3c(Nc4ccc(I)cc4F)c(C)c(=O)oc23)c1` [WX055]: the IC50 in assay [1] (setting [4]) amounted to 978 nM; in assay [2], 71.1 nM; in assay [3] (setting [5]), 643 nM.

On to `CC(=O)Nc1cccc(-c2c(C)n(CCN(C)C(C)=O)c(=O)c3c(Nc4ccc(I)cc4F)c(C)c(=O)oc23)c1` [WX056], for which the figures for the IC50 in assay [1] (setting [4]), in assay [2] and in assay [3] (setting [5]) were 2820 nM, 54.1 nM and 1550 nM, respectively.

With `COCCCn1c(C)cc2oc(=O)c(C)c(Nc3ccc(I)cc3F)c2c1=O` [WX057], the IC50 came out at 72.5 nM in assay [1] (setting [4]), 78 nM in assay [2] and 24.1 nM in assay [3] (setting [5]).

For `CC(=O)Nc1cccc(-c2c(C)n(CC(O)CO)c(=O)c3c(Nc4ccc(I)cc4F)c(C)c(=O)oc23)c1` (stereo not drawn) [WX058], the half-inhibitory concentration (IC50) was 102 nM in assay [1] (setting [4]), 83 nM in assay [2] and 91.1 nM in assay [3] (setting [5]).

Regarding `CC(=O)Nc1cccc(-c2c(C)n(C3CCOCC3)c(=O)c3c(Nc4ccc(I)cc4F)c(C)c(=O)oc23)c1` [WX059], the IC50 in assay [1] (setting [4]) worked out at 923 nM; in assay [2], 32.4 nM; in assay [3] (setting [5]) it was 1650 nM.

For `COCCn1c(C)cc2oc(=O)c(C)c(Nc3ccc(I)cc3F)c2c1=O` [WX060], the IC50 is 115 nM in assay [1] (setting [4]), 86.4 nM in assay [2] and 66.9 nM in assay [3] (setting [5]).

Take `COCCn1c(C)c(-c2cccc(NC(C)=O)c2)c2oc(=O)c(C)c(Nc3ccc(I)cc3F)c2c1=O` [WX061]: the IC50 in assay [1] (setting [4]) came out at 446 nM; in assay [2] it was 57.5 nM; in assay [3] (setting [5]) it was 442 nM.

Turning to `COCCCn1c(C)c(-c2cccc(NC(C)=O)c2)c2oc(=O)c(C)c(Nc3ccc(I)cc3F)c2c1=O` [WX062], the figures for the half-inhibitory concentration (IC50) in assay [1] (setting [4]), in assay [2] and in assay [3] (setting [5]) were 745 nM, 68 nM and 631 nM, respectively.

As for `Cc1c(Nc2ccc(I)cc2F)c2c(=O)n(C3CC3)c(C)c(-c3cccc(NC(=O)C4COC4)c3)c2oc1=O` [WX065], the 50% inhibitory concentration (IC50) in assay [1] (setting [4]) worked out at 7.38 nM; in assay [2], 36.2 nM; in assay [3] (setting [5]), 4.31 nM.

On to `Cc1c(Nc2ccc(I)cc2F)c2c(=O)n(C3CC3)c(C)c(-c3cccc(N(S(C)(=O)=O)S(C)(=O)=O)c3)c2oc1=O` [WX067], for which the half-maximal inhibitory concentration (IC50) in assay [1] (setting [4]) worked out at 75.3 nM; in assay [2], 199 nM; in assay [3] (setting [5]), 25.1 nM.

As to `Cc1c(Nc2ccc(I)cc2F)c2c(=O)n(C3CC3)c(C)c(-c3cccc(C[S+](C)[O-])c3)c2oc1=O` (stereo not drawn) [WX068], the IC50 stood at 9.77 nM in assay [1] (setting [4]), 35 nM in assay [2] and 3.66 nM in assay [3] (setting [5]).

For `CC(=O)NCc1cccc(-c2c(C)n(C3CC3)c(=O)c3c(Nc4ccc(I)cc4F)c(C)c(=O)oc23)c1` [WX069], the values for the IC50 in assay [1] (setting [4]), in assay [2] and in assay [3] (setting [5]) were 40.3 nM, 41.6 nM and 6.63 nM, respectively.

As for `Cc1c(Nc2ccc(I)cc2F)c2c(=O)n(C3CC3)c(C)c(-c3ccnc(N)c3)c2oc1=O` [WX079], the IC50 in assay [1] (setting [4]) is 5.52 nM; in assay [2] it was 35.3 nM; in assay [3] (setting [5]), 3.23 nM.

With `COC(OC)C(=O)Nc1cccc(-c2c(C)n(C3CC3)c(=O)c3c(Nc4ccc(I)cc4F)c(C)c(=O)oc23)c1` [WX081], the figures for the 50% inhibitory concentration (IC50) in assay [1] (setting [4]), in assay [2] and in assay [3] (setting [5]) were 13 nM, 105 nM and 5.26 nM, respectively.

As to `CCS(=O)(=O)Nc1cccc(-c2c(C)n(C3CC3)c(=O)c3c(Nc4ccc(I)cc4F)c(C)c(=O)oc23)c1` [WX082], the results for the IC50 in assay [1] (setting [4]), in assay [2] and in assay [3] (setting [5]) were 3.93 nM, 97.4 nM and 1.75 nM, respectively.

With `Cc1c(Nc2ccc(I)cc2F)c2c(=O)n(C3CC3)c(C)c(-c3cccc(NC(=O)N4CCOCC4)c3)c2oc1=O` [WX085], the half-inhibitory concentration (IC50) was found to be 9.34 nM in assay [1] (setting [4]), 118 nM in assay [2] and 4.65 nM in assay [3] (setting [5]).

Consider `COCCNc1cccc(-c2c(C)n(C3CC3)c(=O)c3c(Nc4ccc(I)cc4F)c(C)c(=O)oc23)c1` [WX087], for which the figures for the concentration for half-maximal inhibition (IC50) in assay [1] (setting [4]), in assay [2] and in assay [3] (setting [5]) were 23.7 nM, 152 nM and 9.42 nM, respectively.
